Assay results published in ChEMBL document CHEMBL4145535, “Recent updates for designing CCR5 antagonists as anti-retroviral agents” (Eur J Med Chem, 2018).

Tests used:
[1] = molecular target: T1, C-C chemokine receptor type 5 (Homo sapiens, UniProt P51681); experiment: Antagonist activity at CCR5 (unknown origin) by HTS assay; assay type: functional
Target sequence in this assay (P51681 whole entry): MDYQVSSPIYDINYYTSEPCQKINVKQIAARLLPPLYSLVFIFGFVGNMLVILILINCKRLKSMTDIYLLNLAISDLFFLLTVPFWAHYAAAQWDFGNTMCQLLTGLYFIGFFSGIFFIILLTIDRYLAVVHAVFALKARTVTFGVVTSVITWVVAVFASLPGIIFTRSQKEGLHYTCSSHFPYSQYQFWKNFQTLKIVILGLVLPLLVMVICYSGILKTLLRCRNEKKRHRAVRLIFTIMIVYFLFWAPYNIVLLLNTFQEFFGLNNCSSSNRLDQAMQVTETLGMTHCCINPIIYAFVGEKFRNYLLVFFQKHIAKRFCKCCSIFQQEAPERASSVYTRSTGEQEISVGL

[2] = molecular target: T1, C-C chemokine receptor type 5; experiment: Displacement of [125I]-RANTES from CCR5 in mouse NIH/3T3 cells after 1 hr
Target sequence in this assay (P51681 whole entry, looked up): as the sequence (P51681 whole entry) above

C1NCC2CNCC12 (configuration not stated)
IC50 [1]: 7 nM

C=CCN(C(=O)OCc1ccc([N+](=O)[O-])cc1)C1CCN(C[C@H]2CN(C(=O)C3CCCC3)C[C@]2(O)c2ccccc2)CC1 [NIFEVIROC]
IC50 [2]: 2.9 nM
